Assays:
[1] = system: wild-type cell line, NFASC target; assay: Genome editing of NFASC target with transient NHEJ/MMEJ/SSA inhibition in a wild-type cell line; type: cell-based; conditions: combination of 2 μM M3814, 320 pmol PoIQ siRNA aa765, PoIQ coding strand nicking, 5 μM 6-OH-dopa, 50 μM AICAR
Text: FIG. 7: Inhibition of RAD52 dependent single strand annealing (SSA) together with MMEJ inhibition is needed to further increase HDR for rare targets with long stretches of homology. The NFASC target has an 11 bp stretch of homology. The first three bars show editing efficiencies in a wild-type cell line, a DNA-PKcs KR cell line leading to NHEJ inhibition, and a DNA-PKcs KR+PoIQ Knockout cell line leading to NHEJ and MMEJ inhibition. […] HDR, mix (HDR with indels), NHEJ, and estimated MMEJ/SSA (at least 2 bp microhomology) are indicated in green, light green, light blue, and light purple, respectively. Error bars show the SEM of at least two replicates and one experiment for the last bar.
In some cases the target for genome editing has long homology stretches around the cleavage site. […] We speculated that indel formation was carried out by the RAD52 dependent single strand annealing pathway (SSA) which uses long stretched of homology.

[2] = system: K562 cells expressing wild-type DNA-PKcs; assay: Genome editing of FRMD7 with Cas9 in K562 cells, amplicon sequencing (HDR / precise genome editing efficiency); type: cell-based, human; conditions: for HDR-increasing effect / precise genome editing efficiency, comparison of DNA-PKcs inhibitors: K562 cells, Cas9 induced DSB, 2 μM and 20 μM
Experimental: Cells were grown at 37° C. in a humidified incubator gassed with 5% CO2.
The recombinant A.s. Cpf1 and S.p. Cas9 protein and electroporation enhancer was ordered from IDT (Coralville, USA) and nucleofection was done using the manufacturer's protocol, except for the following alterations. […] Cells were counted using the Countess Automated Cell Counter (Invitrogen).
Incubation at 65° C. for 10 min, 68° C. for 5 min and finally 98° C. for 5 min was performed to yield ssDNA as a PCR template. […] PCR was done in a T100 Thermal Cycler (Bio-Rad) using the KAPA2G Robust PCR Kit (Peqlab, 07-KK5532-03) with supplied buffer B and 3 μl of cell extract in a total volume of 25 μl. The thermal cycling profile of the PCR was: 95° C.

K562 cells = assay: Resazurin assay for cell survival three days after editing; type: cell-based, human
Text: FIG. 2: Cell survival of human immortalized myelogenous leukemia cells K562 cells after treatment with the small molecule M3814. Results of a resazurin assay for cell survival three days after editing are shown. Resazurin is converted into fluorescent resorfin by cellular dehydrogenases and resulting fluorescence (Excitation: 530-570 nm, Emission: 590-620 nm) is a marker for the amount of living cells. Resorfin fluorescence (610±30 nm) of cells without any treatment is set to 100% cell survival. Error bars show the SEM of three technical replicates for three technical replicates.
Cells were either seeded with or without editing reagents. The media was supplemented with or without M3814 and each condition was carried out in duplicate. After 72 h media was aspirated and 100 μl fresh media together with 10 μl resazurin solution (Cell Signaling, 11884) was added. Resazurin is converted into fluorescent resorfin by cellular dehydrogenases and resulting fluorescence (Excitation: 530-570 nm, Emission: 590-620 nm) is considered as a linear marker for cell viability (O'Brien et al. 2000). Cells were incubated with resazurin at 37° C. The redox reaction was measured every hour by fluorescence readings using a Typhoon 9410 imager (Amersham Biosciences). […] Duplicate wells with media and resazurin, but without cells, were used a blank.

H9 hESCs = assay: Genome editing of LYPLA1 and SCAP by Cas9n double nicking in H9 hESCs-iCRISPR; type: cell-based, human; conditions: M3814 for three days
Text: Genome editing efficiencies of the LYPLA1 and SCAP gene in H9 hESCs-iCRISPR Cas9 nickase (Cas9n) double nicking and treatment with M3814 for three days and with DNA-PKcs K3753R cells are shown. HDR, mix (HDR with indels), NHEJ (non-homologous end joining), and MMEJ (microhomology-mediated end joining with at least two bp of microhomology) are indicated in green, light green, light blue, and light purple, respectively.
We recently created an iCRISPR-Cas9n line from human induced pluripotent stem cells (hiPSCs) (409-B2, Riken BioResource Center) and human embryonic stem cells (hESCs) (H9) as described by Gonzalez et al. Stem cells were grown on Matrigel Matrix (Corning, 35248) in mTeSR1 medium (StemCell Technologies, 05851) with supplement (StemCell Technologies, 05852) that was replaced daily. K562 cells (ECACC, 89121407) were grown with IMDM (ThermoFisher, 12440053) supplemented with 10% FBS. Cells were grown at 37° C. in a humidified incubator gassed with 5% CO2. Media was replaced every second day for non-pluripotent cell lines. Cell cultures were maintained 4-6 days until ~80% confluency, and subcultured at a 1:6 to 1:10 dilution. Adherent cells were dissociated using EDTA (VWR, 437012C). […]
The recombinant A.s. […] Cells were counted using the Countess Automated Cell Counter (Invitrogen). […]

409B2 hiPSCs = assay: Genome editing of FRMD7 with Cas9 protein in 409B2 hiPSCs; type: cell-based, human; conditions: 2 μM, Cas9 induced DSB
Text: FIG. 5: Comparison of the effect of DNA-PK inhibitors on genome editing efficiency. Editing efficiencies of FRMD7 with Cas9 protein and treatment with different concentrations of M3814, NU7026, and NU7441 are shown for K562 cells (A) and 409B2 hiPSCs (B). HDR, mix (HDR with indels), NHEJ, and MMEJ are indicated in green, light green, light blue and light purple, respectively. Error bars show the SEM of three replicates. A skull indicates excessive cell death of up to around 80% determined by phase contrast light microscopy.
We recently created an iCRISPR-Cas9n line from human induced pluripotent stem cells (hiPSCs) (409-B2, Riken BioResource Center) and human embryonic stem cells (hESCs) (H9) as described by Gonzalez et al. Stem cells were grown on Matrigel Matrix (Corning, 35248) in mTeSR1 medium (StemCell Technologies, 05851) with supplement (StemCell Technologies, 05852) that was replaced daily. K562 cells (ECACC, 89121407) were grown with IMDM (ThermoFisher, 12440053) supplemented with 10% FBS. Cells were grown at 37° C. in a humidified incubator gassed with 5% CO2. Media was replaced every second day for non-pluripotent cell lines. Cell cultures were maintained 4-6 days until ~80% confluency, and subcultured at a 1:6 to 1:10 dilution. Adherent cells were dissociated using EDTA (VWR, 437012C). The media was supplemented with 10 μM Rho-associated protein kinase (ROCK) inhibitor Y-27632 (Calbiochem, 688000) after cell splitting for one day in order to increase cell survival.
The recombinant A.s. Cpf1 and S.p. Cas9 protein and electroporation enhancer was ordered from IDT (Coralville, USA) and nucleofection was done using the manufacturer's protocol, except for the following alterations. […] Cells were counted using the Countess Automated Cell Counter (Invitrogen). […]

polymerase theta (PoIQ) = assay: Genome editing efficiency with PoIQ (MMEJ) inhibition in cells with DNA-PKcs KR mutation; type: cell-based, human; conditions: cells with DNA-PKcs KR mutation (NHEJ inhibited)
Experimental: FIG. 6: Inhibition of polymerase theta (PoIQ) dependent microhomology mediated end-joining (MMEJ) can further increase HDR if the target of interest is prone to MMEJ repair. All cells have inhibited NHEJ due to the DNA-PKcs KR mutation, which can be transiently achieved by M3814 in wildtype cells as well. Shown are genome editing efficiencies. Cells were treated with different amounts of siRNA against PoIQ (Dharmacon ON-TARGET plus Human POLQ (10721) siRNA-SMART pool), single nicking of the first exon of PolQ, a combination of the SMART pool and coding strand nicking, and siRNA against PoIQ binding the mRNA at the sequence corresponding to amino acid 765 of PolQ. A cell line with both DNA-PKcs KR and PoIQ knockout mutation is shown for comparison. HDR, mix (HDR with indels), NHEJ, and estimated MMEJ (at least 2 bp microhomology) are indicated in green, light green, light blue, and light purple, respectively. Error bars show the SEM of at least two replicates.
For some targets HDR is increased but a substantial portion of genome editing events however still consists of indels. These are due to the microhomology mediated end-joining (MMEJ) pathway (also referred to as alternative NHEJ) which can compete with NHEJ and serves as a back-up pathway which relies on short stretches of microhomology at the cleavage site. […]

Molecule	HDR, combined NHEJ/MMEJ/SSA inhibition [1]	HDR-increasing effect / precise genome editing efficiency, comparison of DNA-PKcs inhibitors [2]	HDR efficiencies (409B2 hiPSCs)	also measured
NC(Cc1cc(O)c(O)cc1O)C(=O)O (stereo not shown) [6-hydroxy-depa, 6-hydroxy-dopa]	drastic HDR increase	–	–	–
NC(=O)c1ncn([C@@H]2O[C@H](COP(=O)(O)O)[C@@H](O)[C@H]2O)c1N [AICAR, AICA ribonucleotide 5′-monophosphate]	drastic HDR increase	–	–	–
COc1ccc([C@@H](O)c2cc(-c3ncnc4cc(N5CCOCC5)ccc34)c(F)cc2Cl)nn1 [M3814, Nedisertib]	drastic HDR increase	stronger HDR-increasing effect than treatment with NU7026 and NU7441	strongly increased HDR efficiencies	precise genome editing / HDR efficiency ([2]; K562 cells expressing wild-type DNA-PKcs, FRMD7, Cas9, transient M3814 treatment (three days), 18% without M3814): 81%; toxicity (cell survival, resazurin assay) (K562 cells): moderate toxicity; HDR efficiencies compared with DNA-PKcs K3753R mutation (H9 hESCs): comparable to what is achievable by total inactivation of the DNA-PKcs catalytic active site
O=c1cc(N2CCOCC2)oc2c1ccc1ccccc12 [NU7026]	–	significantly less precise genome editing efficiency	much lower efficiencies	–
O=c1cc(N2CCOCC2)oc2c(-c3cccc4c3sc3ccccc34)cccc12 [NU7441]	–	significantly less precise genome editing efficiency	much lower efficiencies	–
siRNA aa765: siRNA binding PoIQ mRNA before the sequence corresponding to the first RAD51 binding domain (SEQ ID NO: 63) (TTGGAAAATACTGTAATCATCCCTGCA; listed as DNA, chemistry not given here)	–	–	–	HDR and indels with MMEJ signature, siRNA alone (polymerase theta (PoIQ)): high HDR
